In assay [1] the test system is MuSCs transplanted into tibialis anterior muscle. Put plainly: Transplantation of cultured MuSCs into irradiated NOD/SCID mice, engraftment by bioluminescence imaging. As to conditions: for Improvement of transplantation function of MuSCs cultured on rigid hydrogels: young and old MuSCs, rigid (~10^6 kPa) hydrogel, 10 μM, one week, 100 cells transplanted. In kind it is in vivo, mouse. How it is done: MuSC transplantation. MuSCs were transplanted immediately following FACS isolation or after collection from cell culture directly into the tibialis anterior muscle of recipient mice as previously described. Cells from GFP/Luciferase or Myf5^nLacZl+/Luciferase mice were transplanted into gender-matched, hindlimb-irradiated NOD/SCID (Jackson) mice. NOD/SCID (2-4 months of age, median 2 months) mice were anesthetized with ketamine (2.4 mg per mouse) and xylazine (240 μg per mouse) by intraperitoneal injection then were irradiated by a single dose of 18 Gy administered to the hindlimbs, with the rest of the body shielded in a lead jig. Transplantation was performed within three days post-irradiation. In syngeneic transplant studies, cells from old C57BL/6 mice were transplanted into gender-matched, littermate old C57BL/6 mice (Jackson) following culture for one week on soft hydrogels. Specifically, old C57BL/6 MuSCs were infected with a GFP/Luciferase lentivirus added at day 2 of culture for 24 hours. Recipient old C57BL/6 mice were acutely injured by a single 10 μl intramuscular injection of notexin (10 μg/ml; Latoxan, France) two days prior to cell transplantation, but were not irradiated. Freshly isolated or cultured cells were counted by hemocytometer and resuspended at desired cell concentrations in PBS with 2.5% goat serum and 1 mM EDTA. Cells were collected from hydrogel cultures by incubation with 0.5% trypsin in PBS for 2 min at 37° C. and counted using a hemocytometer. Cells were transplanted by intramuscular injection into the tibialis anterior muscle in a 10 μl volume.
Tissue histology. Recipient tibialis anterior muscle tissues were prepared for histology as previously described to analyze GFP expression. Transverse sections were incubated with anti-laminin (Millipore, Billerica, Calif.), anti-GFP (Invitrogen) antibodies, and/or anti-β-galactosidase (Abcam, Cambridge, Mass.) with appropriate secondary antibodies (Invitrogen). Nuclei were counter-stained with Hoechst 33342 (Invitrogen). Images were acquired with an AxioPlan2 epi-fluorescent microscope (Carl Zeiss Microimaging, Thornwood, N.Y.) with Plan NeoFluar 10×/0.30NA or 20×/0.75NA objectives (Carl Zeiss) and an ORCA-ER digital camera (Hamamatsu Photonics, Bridgewater, N.J.). Digital images were captured in OpenLab software (Improvision, Waltham, Mass.) and assembled in Photoshop software (Adobe, San Jose, Calif.) with consistent contrast adjustments across all images from the same stain.
Bioluminescence imaging. Bioluminescence imaging was performed using a Xenogen-100 system, as previously described. Briefly, mice were anesthetized under isofluorane and 100 μL luciferin (0.1 mmol/kg; Caliper LifeSciences, Hopkinton, Mass.) in PBS was administered by intraperitoneal injection. Following luciferin administration, images were acquired every minute for 15 min. Images acquired at 12 min post-luciferin injection were used for analysis. Digital images were recorded and analyzed using Living Image software (Caliper LifeSciences). Images were analyzed with a consistent region-of-interest (ROI) placed over each hindlimb to calculate a bioluminescence signal. A bioluminescence signal value of 80,000 photons/s was used to define a engraftment threshold, as this level corresponds to the histological detection of one or more GFP^+ myofiber (see FIG. 8A). BLI imaging was performed one month post-transplant unless otherwise stated.
MuSC culture and treatment. Following isolation, MuSCs were pelleted and resuspended into myogenic cell culture medium containing DMEM/F10 (50:50), 15% FBS, 2.5 ng/ml bFGF, and 1% penicillin/streptomycin. MuSCs were seeded at 1000 cells per well (24-well plate size wells, 2.0 cm^2 surface area) on laminin-tethered hydrogels of either 12 kPa (soft) or ˜10^6 kPa (rigid) rigidities. Cells were maintained at 37° C. in 5% CO2. Media was changed daily. […]

In assay [2] the test system is old MuSCs transplanted into notexin-injured old muscle. The experiment in a line: Syngeneic transplantation of cultured old MuSC progeny into notexin-injured old C57BL/6 muscles, engraftment. In kind it is in vivo, mouse. How it is done:
MuSC transplantation. MuSCs were transplanted immediately following FACS isolation or after collection from cell culture directly into the tibialis anterior muscle of recipient mice as previously described. Cells from GFP/Luciferase or Myf5^nLacZl+/Luciferase mice were transplanted into gender-matched, hindlimb-irradiated NOD/SCID (Jackson) mice. NOD/SCID (2-4 months of age, median 2 months) mice were anesthetized with ketamine (2.4 mg per mouse) and xylazine (240 μg per mouse) by intraperitoneal injection then were irradiated by a single dose of 18 Gy administered to the hindlimbs, with the rest of the body shielded in a lead jig. Transplantation was performed within three days post-irradiation. […] Freshly isolated or cultured cells were counted by hemocytometer and resuspended at desired cell concentrations in PBS with 2.5% goat serum and 1 mM EDTA. Cells were collected from hydrogel cultures by incubation with 0.5% trypsin in PBS for 2 min at 37° C. and counted using a hemocytometer. […]
Bioluminescence imaging. […] Digital images were recorded and analyzed using Living Image software (Caliper LifeSciences). Images were analyzed with a consistent region-of-interest (ROI) placed over each hindlimb to calculate a bioluminescence signal. […]

In assay [3] the test system is tibialis anterior muscle of notexin-injured old mice. The experiment in a line: In vivo force measurements after systemic SB202190 administration. Further details: species or system mouse. As to conditions: 5 mg/kg IP, 5 daily injections starting one day after notexin injury, two months post-injury. How it is done: Systemic SB202190 administration. Old mice were systemically administered SB202190 (5 mg/kg body weight in 0.9% NaCl/H2O) with five daily doses by IP injection starting at one day after NTX injury.
In vivo force measurements. Force measurements were performed on tibialis anterior (TA) muscles in vivo in anesthetized mice, as previously described. The hindlimb was shaved and fixed to a frame to immobilize it without compromising the blood supply to the leg. The animal was warmed on an isothermal pad and by heat lamp. A small incision was placed in the skin directly above the TA muscle. The distal tendon was sutured to a thin metal hook and then attached to a force transducer (300C-LR; Aurora Scientific, Aurora, Ontario). Distal tendons from all front lower hindlimb muscles other than TA were cut, leaving TA isolated during attachment to the force transducer. The muscles and tendons were kept moist by periodic wetting with saline (0.9% sodium chloride) solution. […] Muscle force and synchronization pulses were recorded for 2 seconds immediately prior to the stimulation and 3 seconds after the end of the stimulation. […] Data were collected with a PCI-6251 data acquisition card (National Instruments, Austin, Tex.) and analyzed in Matlab. Specific force values were calculated by normalizing the force measurements by the muscle physiological cross-sectional area (PCSA), as described previously: […]

Structures are written as SMILES. “Also recorded” adds a separate entry of the source.

As to `Oc1ccc(-c2nc(-c3ccncc3)c(-c3ccc(F)cc3)[nH]2)cc1` [SB202190], the “Engraftment frequency for 100-cell transplants” value in assay [1] (old MuSCs cultured one week on soft hydrogel with 10 μM, one month post-transplant) was determined as 41%; in assay [1] (young MuSCs cultured one week on soft hydrogel with 10 μM, one month post-transplant) it was 45%. In addition, the “Transplant engraftment frequency of the progeny of 10 old MuSCs” value in assay [1] (old MuSCs one week on soft hydrogels + SB (~300 cells), one month post-transplant) turned out to be 79%. Also, the “Extent of engraftment (BLI and histology) compared to freshly isolated MuSCs” value in assay [1] (progeny of 10 old MuSCs after one week on soft hydrogels + SB, listed as SB) is listed as “not as robust; also recorded: slightly reduced regenerative extent”. For the same molecule, the “Improvement of transplantation function of MuSCs cultured on rigid hydrogels” value was “does not support significant improvement” in assay [1] and “did not support a similar SB-mediated improvement” in assay [1] (listed as SB). The “Contribution to myofibers (histology)” value in assay [2] (progeny of 100 SB-treated old MuSCs, old recipient muscle, two months after transplantation) was “substantial contribution to myofibers”. In assay [2] (progeny of 100 old MuSCs cultured with 10 μM SB, notexin-injured old C57BL/6 mice, one month), the “Engraftment frequency in aged syngeneic recipient muscle” value is listed as 88%. In addition, in assay [3], the “Recovery of twitch and tetanus forces” value is “aided recovery”.
